Laboratory results from patent US6281218A, “Benzimidazolone derivatives having mixed serotonin and dopamine receptors affinity” (Ingelheim Italia S.p.A., priority 1999, dated 2001).

Columns and labels:
D4 receptor = target: T1, D4 receptor (Homo sapiens, UniProt P21917); assay: D4 receptor binding, [3H]-YM 09151-2 displacement; settings: CHO cell membranes, read-out: K1 (nM) for D4 (CHO cell membranes)
T1 construct: expressed in transfected cells; host or cells: CHO cells
T1 sequence (P21917 1-419): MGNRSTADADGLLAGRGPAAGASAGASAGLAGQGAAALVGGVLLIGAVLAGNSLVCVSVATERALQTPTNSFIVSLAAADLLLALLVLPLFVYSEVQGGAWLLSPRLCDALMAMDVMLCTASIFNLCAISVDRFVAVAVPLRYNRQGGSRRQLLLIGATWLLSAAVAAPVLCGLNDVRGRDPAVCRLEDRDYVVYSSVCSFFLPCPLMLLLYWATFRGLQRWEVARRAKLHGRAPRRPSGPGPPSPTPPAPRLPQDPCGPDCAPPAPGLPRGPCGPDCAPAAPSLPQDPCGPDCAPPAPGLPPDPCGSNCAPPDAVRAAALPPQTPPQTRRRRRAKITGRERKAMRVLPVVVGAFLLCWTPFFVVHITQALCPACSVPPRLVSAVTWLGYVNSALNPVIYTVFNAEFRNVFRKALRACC
Experimental: Cells were grown in monolayer at 37° C. in 95% air/5% CO2 in Dulbecco's Modified Eagle Medium (DMEM) supplemented with 7.5% (v/v) heat-inactivated fetal bovine serum (FBS), 2.5% (v/v) heat-inactivated horse serum donor herd, 2% of a stock solution containing 5000 I.U./ml penicillin and 5000 μg/ml streptomycin, 1% (v/v) of a solution MEM containing non-essential amino acid, 2 mM glutamine ind 200 μg/ml geneticin. Cells were passaged twice a week using a trypsin/EDTA solution and the split rate was 1:4. Cells were not subcultured more than 17 times.
Preparation of cell membranes:
The cells grown to confluence were washed twice with Dulbecco's PBS buffer and were detached adding VERSENE (PBS containing 0.2 g/l EDTA) for 10 minutes at 37° C. The cell suspension was centrifuged at 1,000 rpm for 10 minutes and the pellet was harvested in DMEM with 10% DMSO and stored at -80° C. Before use, cells were thawed, centrifuged at 1,000 rpm for 10 minutes and the pellet was resuspended in PBS. The cells were centrifuged again at 270×g for 10 minutes at 4° C. and the pellet was resuspended in a lysis buffer (10 mM Tris-HCl pH 7.4, 5 mM Na2 EDTA and protease inhibitors) and incubated for 30 minutes on ice. Cells were homogenized with an Ultra Turrax homogenizer. Unbroken cells and nuclei were removed by an initial centrifugation at 270×g for 10 minutes at 4° C. and crude membranes were collected from the supernatant by a 60 minute spin at 130,000×g. The pelleted membranes were resuspended in the same lysis buffer with 20 strokes by a Potter homogenizer. The final cell membrane suspension, corresponding to about 1×10^7 original cells/ml, was aliquoted and immediately frozen at -80° C.
D4 receptor binding studies were carried out in membranes from CHO cells prepared as above. The membranes were dilute in incubation buffer (50 ml/ TRIS-HCl pH 7.4, 5 mM MgCl2·6H2 O, 5 mM KCl, 1.5 mM CaCl2·2H2 O, 5 mM EDTA) according to their receptor density.
Displacement experiment were performed in 1000 μl total volume incubating the membranes (980 μl) in the presence of [^3 H]-YM 09151-2 (10 μl; 0.15-0.25 nM) and different concentrations of the test compounds dissolved in DMISO (10 μl) at 27° C. for two hours. Nonspecific binding was determined in the presence of 10 μM of Clozapine (10 μl). The reaction was stopped by rapid filtration through Inotech IH 201 filters (pre-soaked in 0.1% polyethyleneimine) using an Inotech Cell Harvester. The radioactivity was counted by liquid scintillation spectrometry.
(§1) The affinity values (Ki) for the compounds were obtained by a nonlinear least squares regression analysis on the basis of a one binding site model. The values were corrected on the basis of the radioligand occupancy on the receptors according to the equation: Ki =IC50 /(1+[C]/Kd), where [C] and Kd represent the concentration and the dissociation constant of the used radioligands ([^3 H]-8-OH-DPAT for the 5-HT1A binding, [^3 H]-Ketanserine for the 5-HT2A binding and [^3 H]-YM 09151-2) for the D4 binding, respectively).

5-HT2A receptor = target: T2, 5-HT2A receptor (Rattus norvegicus, UniProt P14842); assay: 5-HT2A receptor binding, [3H]-Ketanserine displacement; settings: rat cortex tissue, read-out: K1 (nM) for 5-HT2A (Rat cortex tissue)
T2 construct: Cerebral cortex was homogenized in 10 volumes of ice cold 0.32 M sucrose; from tissue; host or cells: rat cerebral cortex (male Sprague-Dawley)
T2 sequence (P14842 whole entry): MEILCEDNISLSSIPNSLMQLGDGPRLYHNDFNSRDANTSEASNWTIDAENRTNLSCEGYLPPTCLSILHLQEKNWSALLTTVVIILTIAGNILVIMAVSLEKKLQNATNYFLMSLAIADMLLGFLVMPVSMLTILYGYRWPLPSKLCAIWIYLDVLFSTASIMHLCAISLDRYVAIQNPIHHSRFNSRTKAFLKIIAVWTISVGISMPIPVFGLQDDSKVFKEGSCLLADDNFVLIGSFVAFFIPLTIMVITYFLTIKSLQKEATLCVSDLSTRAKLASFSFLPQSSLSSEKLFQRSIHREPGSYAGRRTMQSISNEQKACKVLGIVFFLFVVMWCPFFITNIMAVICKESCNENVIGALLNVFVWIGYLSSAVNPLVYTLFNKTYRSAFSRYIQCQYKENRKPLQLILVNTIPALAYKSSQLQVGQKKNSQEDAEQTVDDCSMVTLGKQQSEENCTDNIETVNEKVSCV
Experimental: Male Sprague-Dawley rats (200-250 g) were used. Cerebral cortex was homogenized in 10 volumes of ice cold 0.32 M sucrose. After the centrifugation of the homogenate (1,000×g for 10 minutes) the supernatant was then recentrifuged at 48,000×g for 15 minutes. The resulting pellet was suspended in 10 volumes of 50 mM TRIS buffer (pH 7.4), incubated at 37° C. for 10 minutes and recentrifuged at 48,000 × g for 15 minutes. The residue was then resuspended in 10 volumes of 50 mM TRIS buffer (pH 7.4).
The tissue was diluted 1:100 (w:v) in 50 mM TRIS buffer (pH 7.4) to have a final concentration of about 200 μg/ml. Displacement experiments were performed by incubating the homogenate (980 μl) in the presence of [^3 H]-Ketanserine (10 μl; 0.5-0.6 nM) and different concentrations of the test compounds dissolved in DMSO (10 μl) at 37° C. for 10 minutes (final volume: 1 ml). Nonspecific binding was determined in the presence of 100 μM Methysergide (10 μl). The reaction was stopped by rapid filtration through Inotech IH 201 filters using an Inotech Cell Harvester. The radioactivity was counted by liquid scintillation spectrometry.
as §1

5-HT1A receptor = target: T3, 5-HT1A receptor (Rattus norvegicus, UniProt P19327); assay: 5-HT1A receptor binding, [3H]-8-OH-DPAT displacement; settings: rat hippocampus tissue, read-out: K1 (nM) for 5-HT1A (rat hippocampus tissue)
T3 construct: from tissue; host or cells: rat hippocampus (male Sprague-Dawley)
T3 sequence (P19327 1-422): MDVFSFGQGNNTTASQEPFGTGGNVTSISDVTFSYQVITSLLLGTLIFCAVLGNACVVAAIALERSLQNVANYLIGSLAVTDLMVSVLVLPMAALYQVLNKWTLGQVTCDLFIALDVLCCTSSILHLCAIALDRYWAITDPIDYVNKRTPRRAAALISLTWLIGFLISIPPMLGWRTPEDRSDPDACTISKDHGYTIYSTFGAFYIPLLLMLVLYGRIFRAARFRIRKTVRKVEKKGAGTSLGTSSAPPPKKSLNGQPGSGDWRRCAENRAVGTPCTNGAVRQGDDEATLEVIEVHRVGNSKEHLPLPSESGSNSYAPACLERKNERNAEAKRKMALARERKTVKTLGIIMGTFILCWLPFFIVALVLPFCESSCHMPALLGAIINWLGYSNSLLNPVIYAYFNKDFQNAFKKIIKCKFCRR
Experimental: Male Sprague-Dawley rats (200-250 g) were used. The hippocampus taken from these animals was homogenized in 10 volumes of ice cold 50 mM TIUS buffer (pH 7.4). The homogenate was diluted 1:400 (w:v) in the same buffer to have a final protein concentration of about 200 μg/ml, filtered and incubated at 37° C. for 10 minutes before use.
Displacement experiments were performed by incubating the homogenate (980 μl) in the presence of [^3 H]-8-OH-DPAT (10 μl; 1.0-1.2 nM) and different concentrations of the test compounds dissolved in DMSO (10 μl), at 30° C. for 15 minutes (final volume: 1 ml). Nonspecific binding was determined in the presence of 10 μM 5-HT (10 μl). The reaction was stopped by rapid filtration through Inotech IH 201 filters using an Inotech Cell Harvester. The radioactivity was counted by liquid scintillation spectrometry.
as §1

Compound | Ki (D4 receptor) | Ki (5-HT2A receptor) | Ki (5-HT1A receptor)
O=c1[nH]c2cccc(O)c2n1CCN1CCN(c2cccc(C(F)(F)F)c2)CC1 [Compound 4, 7-Hydroxy-1-{2-[4-(3-trifluoromethylphenyl)piperazin-1-yl]ethyl}-1,3-dihydro-benzimidazol-2-one] | 652 nM | 23.8 nM | 1590 nM
O=c1[nH]c2cc(O)ccc2n1CCN1CCN(c2cccc(C(F)(F)F)c2)CC1 [Compound 1, 5-Hydroxy-1-{2-[4-(3-trifluoromethylphenyl)piperazin-1-yl]ethyl}-1,3-dihydro-benzimidazol-2-one] | 287 nM | 58.5 nM | 40.8 nM
O=c1[nH]c2ccccc2n1CCN1CCN(c2ccc(O)c(C(F)(F)F)c2)CC1 [Compound 5, 1-{2-[4-(4-Hydroxy-3-trifluoromethylphenyl)piperazin-1-yl]ethyl}-1,3-dihydro-benzimidazol-2-one] | 17.8 nM | 705 nM | 369 nM
O=c1[nH]c2ccccc2n1CCN1CCN(c2cc(C(F)(F)F)ccc2O)CC1 [Compound 7, 1-{2-[4-(2-Hydroxy-5-trifluoromethylphenyl)piperazin-1-yl]ethyl}-1,3-dihydro-benzimidazol-2-one] |  | 4440 nM | > 10000 nM
O=c1[nH]c2ccc(O)cc2n1CCN1CCN(c2cccc(C(F)(F)F)c2)CC1 [Compound 2, 6-Hydroxy-1-{2-[4-(3-trifluoromethylphenyl)piperazin-1-yl]ethyl}-1,3-dihydro-benzimidazol-2-one] | 804 nM | 33.8 nM | 333 nM
O=c1[nH]c2ccccc2n1CCN1CCN(c2cc(O)cc(C(F)(F)F)c2)CC1 [Compound 6, 1-{2-[4-(3-Hydroxy-5-trifluoromethylphenyl)piperazin-1-yl]ethyl}-1,3-dihydro-benzimidazol-2-one] | 24.8 nM | 328 nM | 156 nM
O=c1[nH]c2c(O)cccc2n1CCN1CCN(c2cccc(C(F)(F)F)c2)CC1 [Compound 3, 4-Hydroxy-1-{2-[4-(3-trifluoromethylphenyl)piperazin-1-yl]ethyl}-1,3-dihydro-benzimidazol-2-one] | 33.9 nM | 43.8 nM | 15.4 nM
